How the values were obtained:
MCF-7 cells = assay: EMT assay by phase contrast microscopy in MCF-IM model; type: cell-based, human; details: MCF-IM model; for EMT (morphology): bisindolylmaleimide 1 μM, 1 hr pre-treatment before PMA for 60 hrs
Procedure: EMT assays were performed in 24-well plates (Costar, Corning Inc., Corning, N.Y., USA). For this assay, usually MCF-7 cells were seeded at 4×10^4/well/500 μL media one day before the experiment unless otherwise specified. Cells were stimulated with various EMT stimuli prepared in warm media the following day and monitored for EMT changes under the microscope specified below. The percentage of EMT was generally calculated based on phenotype counting 100 cells per field under the microscope. All the potential EMT stimuli used herein are described in Table 6 and they were prepared and stored as per supplier specification.
Phase contrast microscopy was utilized for EMT and wound healing assays under 10× or 20× magnification of Olympus Fluorescence 1X71 microscope. Images were captured and analyzed as described above except that wound healing assay pictures were also analyzed by Image J software (Free software in Public domain developed by NIH).
The adherent human mammary adenocarcinoma MCF-7 and MDA-MB-231 cells were cultured in low glucose DMEM (Gibco) and both supplemented with 10% FCS, 2 mM L-glutamine and 0.1% PSN antibiotics. […] For Bisindolylmaleimide-I (Calbiochem) or PKC-θ peptide inhibitor (Calbiochem) studies, cells were pre-treated with 1 μM or 30 μM of inhibitor respectively for 1 h prior to stimulation in MCF-7 cells. In case of MDA-MB-231, cells were treated with 4 μM or 30 μM Bisindolylmaleimide-I or PKC-θ peptide inhibitor respectively.
phase contrast microscopy was performed where cells were viewed at ×4 magnification (wound healing assay) or ×10 magnification (EMT) using an Olympus fluorescence IX71 microscope (Olympus) and images were captured using DPController software (2002 Olympus Optical Co. LTD) and analyzed using Photoshop CS3 (Adobe Systems Inc.). Scans were taken with a 10 μm scale bar.

[1] = tested on: laminin-5, uPAR and CD44 transcripts in MCF-7 cells; assay: TaqMan real time PCR transcript analysis of EMT/CSC genes in MCF-IM model; type: cell-based, human
Procedure: For most of the experiments, total RNA was extracted from 5×10^5 to 1×10^6 MCF-7 cells unless otherwise specified. Cells were first thawed in 1 mL of Trizol® Reagent (Invitrogen, Carlsbad, Calif.) for 5 minutes at room temperature to inactivate RNases, followed by trituration to dislodge the cell pellet. The dissociated cells suspended in Tizol (1 mL) were transferred into a 1.5 mL Eppendorf tube for 5 minutes for homogenization. RNA was then extracted by addition of 200 μL chloroform and mixing was done vigorously before centrifuging the samples at 8,000×g for 30 minutes at 4° C. The aqueous layer was then collected into a fresh 1.5 mL Eppendorf tube and an equal volume of isopropanolol was added to the aqueous layer and mixed gently. After 5 minutes at room temperature, samples were either snap frozen on dry ice and stored at −70° C. overnight or until the isolation procedure could be re-commenced. After thawing the samples quickly, the samples were again centrifuged at 8,000×g for 30 minutes at 4° C. to precipitate the RNA. To remove all traces of isopropanolol, next the RNA pellets were washed with 1 mL of ice cold 80% ethanol (Analytical UNIVAR, Seattle, Wash.) before centrifuging at 3,600×g for 10 minutes at 4° C. All ethanol then was removed and pellets were allowed to air dry for 5 minutes. RNA samples were then solubilized by re-suspending them in 50 μL of nuclease-free DEPC (Diethylpyrocarbonate treated) water (Ambion, VIC, Australia). Next, 2 μL of the sample was taken out to measure RNA quality and quantity on Nano-drop® Spectrophotometer ND 1000 (Nanodrop Technologies, Inc., Wilmington, Del., USA) using ND-1000 V3.30 software. All the RNA samples were found pure as they had A260/A280 ratio of 1.9-2.1 and this ratio provides an estimate of RNA purity with respect to contaminants such as proteins that absorb in the UV spectrum.
Superscript™® III kit (Invitrogen, Carlsbad, Calif.) was used for cDNA synthesis. Master mix-1 was prepared by adding 1 μL of 5 μM oligo (dT) and 1 μL of 100 mM dNTPs and mixed by flicking. Mastermix-2 was prepared by adding 2 μL of RT buffer, 2 μL of 3 mM mgCl2, 2 μL of DTT mix, 1 μL of RNAse out, 1 μL of superscript III and mixed by flicking. For 1 μg RNA, 2 μL of the master mix-1 was added to the samples, mixed and incubated at 65° C. for 5 minutes and then samples were placed on ice to stop the reaction. This step was followed by addition of 10 μL of the master mix-2 per sample and incubation of samples at 50° C. for 50 minutes. The reaction was then stopped by incubating samples at 85° C. for 5 minutes followed by placing the samples on the ice for 2 minutes. […] All the samples were either snap frozen on dry ice or used immediately for quantitative Real-Time PCR analysis. […]

SMILES | EMT (morphology) (MCF-7 cells) | EMT (morphology) (MCF-7 cells; listed as Broad spectrum PKC pathway inhibitor) | transcription of key inducible EMT/CSC genes (laminin-5, uPAR, CD44) ([1]; bisindolylmaleimide-I 100 nM for 1 hour prior to PMA) | transcription of key inducible EMT/CSC genes (laminin-5, uPAR, CD44) ([1]; bisindolylmaleimide-I 1 μM for 1 hour prior to PMA) | transcription of key inducible EMT/CSC genes (laminin-5, uPAR, CD44) ([1]; bisindolylmaleimide-I 1 μM for 1 hour prior to PMA, listed as Broad spectrum PKC pathway inhibitor) | PMA-induced EMT-like morphological changes (MCF-7 cells; pre-incubation with Go6976) | transcription of key inducible EMT/CSC genes (laminin-5, uPAR, CD44) ([1]; Go6976 1 μM for 1 hour prior to PMA)
CN(C)CCCn1cc(C2=C(c3c[nH]c4ccccc34)C(=O)NC2=O)c2ccccc21 [bisindolylmaleimide-I] | inhibits EMT | inhibition of EMT and CSC formation | cannot inhibit transcription of key inducible EMT/CSC genes | inhibits transcription of key inducible EMT/CSC genes | inhibition of EMT and CSC formation | – | –
Cn1c2ccccc2c2c3c(c4c5ccccc5n(CCC#N)c4c21)CNC3=O [Go6976] | – | – | – | – | – | did not prevent PMA-induced EMT-like morphological changes or CSC formation | failed to inhibit transcription of key inducible EMT/CSC genes

Reference: US10485772B2, “Compositions for modulating cancer stem cells and uses therefor” (University of Canberra, priority 2014, dated 2019)
